The record followed here is patent US8138168B1 (Takeda Pharmaceutical Company Limited, priority 2007, dated 2012).

Bounds are passed on as bounds.

The assay has as its target T1, Recombinant human renin (Homo sapiens, UniProt P00797).
T1 construct: isolate the active form (residues 67-406); made in house; host or cells: FreeStyle 293-F cells (transient expression of pcDNA3.1(+)/hREN)
T1 sequence (P00797 67-406): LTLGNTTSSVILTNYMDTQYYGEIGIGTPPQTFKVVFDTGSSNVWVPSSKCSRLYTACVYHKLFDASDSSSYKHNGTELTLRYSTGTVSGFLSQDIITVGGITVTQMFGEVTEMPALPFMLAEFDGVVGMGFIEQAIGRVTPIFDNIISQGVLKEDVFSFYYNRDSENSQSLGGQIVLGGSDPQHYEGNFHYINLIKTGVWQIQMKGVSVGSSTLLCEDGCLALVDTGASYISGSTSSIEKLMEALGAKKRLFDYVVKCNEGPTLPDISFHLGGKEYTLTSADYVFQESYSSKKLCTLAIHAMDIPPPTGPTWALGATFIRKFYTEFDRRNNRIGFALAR
The experiment in a line: In vitro enzymatic activity assay of renin inhibitors (fluorogenic peptide substrate). Format: biochemical. The note with it: read-out: IC50 of Exemplified Compounds Against Renin. In outline: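 Recombinant human renin (3 nM final) pre-incubated 10 min at 37 °C with compounds in pH 7.4 Hepes/EDTA/DTT/0.1 mg/mL BSA/Brij35 buffer (optionally plus 2% BSA), 5% DMSO final; fluorogenic QXL520/HiLyteFluo488 peptide substrate added.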

One may read the IC50 as the point on the concentration scale where inhibition reaches its midpoint. For the compound `COCCCn1c([C@@H]2CCCN(C(=O)[C@@H]3CN(C(=O)Nc4cccc(Cl)c4)C[C@H]3N)C2)nc2ccccc21` [Compound 378, (3S,4R)3-amino-N-(3-chlorophenyl)-4-((R)-3-(1-(3-methoxypropyl)-1H-benzo[d]imidazol-2-yl)piperidine-1-carbonyl)pyrrolidine-1-carboxamide], the IC50 was 100 to 1000 nM. Then `N[C@@H](CC(=O)N1CCCC(c2nc3ccccc3[nH]2)C1)Cc1ccc2ccccc2c1` (stereo partly drawn) [Compound 44, (3R)-1-(3-(1H-benzo[d]imidazol-2-yl)piperidin-1-yl)-3-amino-4-(naphthalen-2-yl)butan-1-one], with greater than 1000 nM; and `COCCCn1c(C2CCCN(C(=O)CC(N)Cc3ccc4ccccc4c3)C2)nc2ccc(=O)[nH]c21` [Compound 101, (R)-2-(1-(3-amino-4-(naphthalen-2-yl)butanoyl)piperidin-3-yl)-3-(3-methoxypropyl)-3H-imidazo[4,5-b]pyridin-5(4H)-one], with greater than 1000 nM. Then `COCCCn1c([C@@H]2CCCN(C(=O)C[C@H](N)Cc3ccc(Cl)c(Cl)c3)C2)nc2ccccc21` [Compound 77, (R)-3-amino-4-(3,4-dichlorophenyl)-1((R)-3-(1-(3-methoxypropyl)-1H-benzo[d]imidazol-2-yl)piperidin-1-yl)butan-1-one], with 100 to 1000 nM; and `COCCCn1c([C@@H]2CCCN(C(=O)[C@@H]3CN(C(=O)C4CCCCC4)C[C@H]3N)C2)nc2ccccc21` [Compound 405, ((3R,4S)-4-amino-1-(cyclohexanecarbonyl)pyrrolidin-3-yl)((R)-3-(1-(3-methoxypropyl)-1H-benzo[d]imidazol-2-yl)piperidin-1-yl)methanone], with greater than 1000 nM. Then `CCOC(=O)c1ccc(-c2ccc(C(=O)NC[C@@H](N)CC(=O)N3CCC[C@@H](c4nc5ccccc5n4CCCOC)C3)o2)cc1` [Compound 294, ethyl 4-(5-((S)-2-amino-4-((R)-3-(1-(3-methoxypropyl)-1H-benzo[d]imidazol-2-yl)piperidin-1-yl)-4-oxobutylcarbamoyl)furan-2-yl)benzoate], with 100 to 1000 nM; and `COCCCn1c([C@@H]2CCCN(C(=O)C[C@H](N)CNC(=O)c3ccc(-c4cccc([N+](=O)[O-])c4)o3)C2)nc2ccccc21` [Compound 297, N-((S)-2-amino-4-((R)-3-(1-(3-methoxypropyl)-1H-benzo[d]imidazol-2-yl)piperidin-1-yl)-4-oxobutyl)-5-(3-nitrophenyl)furan-2-carboxamide], with 100 to 1000 nM. Turning to `CC(=O)Nc1ccc(-c2ccc(C[C@@H](N)CC(=O)N3CCC[C@@H](c4nc5ccccc5n4CCC(N)=O)C3)cc2)cc1` [Compound 486, 3-(2-((R)-1-((R)-4-(4′-acetamidobiphenyl-4-yl)-3-aminobutanoyl)piperidin-3-yl)-1H-benzo[d]imidazol-1-yl)propanamide], the IC50 is 100 to 1000 nM. Then `COCCCn1c([C@@H]2CCCN(C(=O)C[C@H](N)Cc3ccc(-c4ccc5nonc5c4)cc3)C2)nc2ccccc21` [Compound 140, (R)-3-amino-4-(4-(benzo[c][1,2,5]oxadiazol-5-yl)phenyl)-1-((R)-3-(1-(3-metboxypropyl)-1H-benzo[d]imidazol-2-yl)piperidin-1-yl)butan-1-one], with less than 100 nM; and `COCCCn1c([C@@H]2CCCN(C(=O)C[C@H](N)Cc3ccc(-c4ccc(C(=O)NC(CO)CO)cc4)cc3)C2)nc2ccccc21` [Compound 184, 4′-((R)-2-amino-4-((R)-3-(1-(3-methoxypropyl)-1H-benzo[d]imidazol-2-yl)piperidin-1-yl)-4-oxobutyl)-N-(1,3-dihydroxypropan-2-yl)biphenyl-4-carboxamide], with less than 100 nM. Then `COCCCn1c([C@@H]2CCCN(C(=O)C[C@H](N)Cc3ccc(N4CCC(CO)CC4)cc3)C2)nc2ccccc21` [Compound 235, (R)-3-amino-4-(4-(4-(hydroxymethyl)piperidin-1-yl)phenyl)-1-((R)-3-(1-(3-methoxypropyl)-1H-benzo[d]imidazol-2-yl)piperidin-1-yl)butan-1-one], with 100 to 1000 nM.
